Key:
target gene SOD1 [1] = experiment: Test Example 4: lipid conjugated siRNA sequences with different carbon chain lengths, SOD1 in mouse brain, lateral ventricle administration; type: in vivo, C57BL/6j mice; parameters: Right hemisphere Mean value of inhibition rate / Left hemisphere Mean value of inhibition rate: unit not given here; conditions: D5; for Left hemisphere Mean value of inhibition rate: left hemisphere (non-administration side); for Left hemisphere Mean value of inhibition rate / Right hemisphere Mean value of inhibition rate: lateral ventricle; for Right hemisphere Mean value of inhibition rate: right hemisphere (administration side)
Experimental: 6-8 Week-old C57BL/6j mice were randomly grouped by body weight. Mice in each group were administered with siRNA by lateral ventricle administration, with an administration dose per mouse depending on a specific test. Taking Bregma in mouse brain as point 0 (origin), coordinates of right ventricle were found using the cerebral stereotaxic apparatus and position was marked on surface of skull (position of lateral ventricle was AP (anteroposterior, bregma anterior and posterior): −0.58 mm, ML (mediolateral, left and right of middle raphe): −1.2 mm, DV (dorsoventral, up and down cerebral dura mater plane): −2.2 mm). A dental electric drill was used to drill in the skull above a position of interest, and then medicament was injected into the lateral ventricle by a micro-dosing pump, wherein a total injection volume was 5 μL, and injection duration was 10 min. Needle was retained for 5 min after completion of injection, and then slowly withdrawn. Afterwards, needle hole was sealed with biomedical glue, and then head skin was adhered. After animals woke up, the animals were returned back to animal house and further fed. PBS control group was administered with the same volume of siRNA-free PBS solution. The day of administration was recorded as 0 day (D0), and the mice were sacrificed at observation point after the administration. Different parts of brain region were respectively taken and stored in the RNAlater.
(§1) RNA extraction: the above tissue samples were taken out from the RNAlater, and smashed for 60 s in Tissuelyser type II full-automatic tissue homogenizer, and total RNAs of various tissue samples were extracted using the full-automatic nucleic acid extraction instrument and the nucleic acid extraction kit from Zhejiang Hanwei Science and Technology Co. Ltd. according to methods described in instructions.
(§2) Reverse transcription reaction: 1 μg of the extracted total RNAs of the tissue samples were taken, and configured into 20 μL of reverse transcription system according to a method described in kit instructions by using a reverse transcription kit (Reverse Transcription System, A3500) from Promega Corporation and selecting Oligo (dT)15 reverse transcription primers, and the reverse transcription reaction was completed. After the reaction was ended, 80 μL of RNase-Free water was added into the reverse transcription system to provide cDNA solution for Real-time PCR detection.
(§3) Real-time PCR detection: 20 μL of Real-time PCR reaction system per PCR detection well was configured according to a method described in kit instructions using SYBR™ Select Master Mix (Catalog number: 4472908) reagent from ABI company. Each detection system contained 5 μL of cDNA template obtained from the above reverse transcription reaction, 10 μL of SYBR™ Select Master Mix, 0.5 μL of 10 μM upstream primers, 0.5 μL of 10 μM downstream primers, and 4 μL of RNase-Free H2O. The configured reaction system was subjected to Real-time PCR amplification on ABI StepOnePlus PCR instrument by a three-step method, wherein an amplification procedure was pre-denaturation at 95° C. for 10 min, then denaturation at 95° C. for 30 s, annealing at 60° C. for 30 s, and extension at 72° C. for 30 s; and processes of denaturation, annealing, and extension were repeated for 40 cycles. Gene expression differences were calculated by the ΔΔCt method after completion of the procedure.
In the real-time fluorescence quantitative PCR method, relative quantitative calculation of remaining expression level and inhibition rate of gene mRNA of interest in various test groups was performed by the ΔΔCt method, and the calculation method is as follows: […]

target gene SOD1 [2] = experiment: Test Example 8: inhibitory activity on target gene SOD1 in adipose tissues in different parts of mice; type: in vivo, C57BL/6j mice; conditions: D14; for Subcutaneous fat % Mean value of inhibition rate: abdominal subcutaneous fat; for Subcutaneous fat % Mean value of inhibition rate / Brown fat on back % Mean value of inhibition rate / Paragonadal fat % Mean value of inhibition rate: tail vein injection 5 mg/kg
Experimental: as §1, §2, §3
(§4) In the real-time fluorescence quantitative PCR method, relative quantitative calculation of remaining expression level and inhibition rate of gene mRNA of interest in various test groups was performed by the ΔΔCt method, and the calculation method is as follows:
The present test example evaluated, by an evaluation method for inhibitory activity on a target gene in mice, the inhibitory activity of siRNA sequence RZ899090 with the sense strand with the NM073 conjugation at Position 4, siRNA sequence RZ899091 with the sense strand with the NM074 conjugation at Position 4, siRNA sequence RZ899078 with the sense strand with the NM202 conjugation at Position 6 and siRNA reference sequence RZ899093 with the sense strand with the Uhd conjugation at Position 4, siRNA reference sequence RZ899076 with the sense strand with the NM200 conjugation at Position 4 on the target gene SOD1 in adipose tissues of interest in mice.
6-8 Week-old C57BL/6j mice were randomly grouped by body weight, 5 per group, 6 groups in total. Mice in each group were dosed with the above siRNA conjugates by tail vein injection, with an administration dose of 5 mg/kg per mouse, and an administration volume of 150 μL. PBS control group was administered with the same volume of siRNA conjugate-free PBS solution. The day of administration was recorded as D0, and 5 mice in each group were sacrificed on D14 after administration. Paragonadal fat, abdominal subcutaneous fat, and brown fat on back were respectively taken. RNA extraction, reverse transcription, and real-time fluorescence quantitative detection were performed on various tissues according to the above method, and gene expression differences were calculated by the above ΔΔCt method.

target gene SOD1 [3] = experiment: Test Example 6: inhibitory activity of NM073, NM074 conjugated siRNA sequences on SOD1 by intrathecal administration to rats; type: in vivo, SD rats; conditions: D28
Experimental: 6-8 Week-old SD rats were randomly grouped by body weight. Rats in each group were administered with siRNA by intrathecal administration, with an administration dose of 900 μg per rat. Injection was administered from rat spinal cord L5-L6, with an administration volume of 40 μL. Needle was retained for 2 min after completion of injection, and then slowly withdrawn. PBS control group was administered with the same volume of siRNA conjugate-free PBS solution. The day of administration was recorded as 0 day (D0), and the rats were sacrificed at observation point after administration. Different segments of spinal cord and different regions of brain were respectively taken and stored in the RNAlater.
as §1, §2, §3, §4
The present test example evaluated, by an evaluation method for inhibitory activity on a target gene by intrathecal administration to rats, the inhibitory activity of siRNA sequence RZ899090 with the NM073 conjugation at Position 4, siRNA sequence RZ899091 with the NM074 conjugation at Position 4 and siRNA control sequence RZ899093 with the Uhd conjugation on the target gene SOD1 of interest in spinal cord and brain of rats. The above conjugation vectors were different in that NM073 was C18 aliphatic chain and NM074 was C20 aliphatic chain.
6-8 Week-old SD rats were randomly grouped by body weight, 5 per group, 4 groups in total. Rats in each group were dosed with the above siRNA conjugates by intrathecal administration, with an administration dose of 900 μg per rat, and an administration volume of 40 μL. PBS control group was administered with the same volume of siRNA conjugate-free PBS solution. The day of administration was recorded as D0, and the rats were sacrificed on D28 after administration. […]

## RZ899076: siRNA reference sequence with the sense strand with the NM200 (C22) conjugation at Position 4; SEQ ID NO: 18 / 24 (sense UUUNAAUCCUCACUCUAAA; antisense UUUAGAGUGAGGAUUAAAAUG; NM200 (C22) conjugate at sense position 4; modified_base 1..2 OTHER; 2'-methoxy and 5'-thiophosphate modified nucleotides; modified_base 3 OTHER; 2'-methoxy modified nucleotide; modified_base 4 OTHER; n is the synthetic nucleotide analog NM200 as described in the disclosure.; modified_base 5..6 OTHER; 2'-methoxy modified nucleotides; modified_base 7..10 OTHER; 2'-fluoro modified nucleotides; modified_base 11..19 OTHER; 2'-methoxy modified ; modified_base 1 OTHER; 2'-methoxy and 5'-thiovinylphosphonate modified nucleotide; modified_base 2 OTHER; 2'-fluoro and 5'-thiophosphate modified …) [reference compound]
Target gene SOD1 [1]; 150 μg per mouse
  Left hemisphere Mean value of inhibition rate: 65.25
  Right hemisphere Mean value of inhibition rate: 79.02
Target gene SOD1 [2]
  Subcutaneous fat % Mean value of inhibition rate: 76.03%
  Brown fat on back % Mean value of inhibition rate: 80.80%
  Paragonadal fat % Mean value of inhibition rate: 56.52%

## RZ899078: siRNA sequence with the sense strand with the NM202 (C22) conjugation at Position 6; SEQ ID NO: 20 / 24 (sense UUUUANUCCUCACUCUAAA; antisense UUUAGAGUGAGGAUUAAAAUG; NM202 (C22) conjugate at sense position 6; modified_base 1..2 OTHER; 2'-methoxy and 5'-thiophosphate modified nucleotides; modified_base 3..5 OTHER; 2'-methoxy modified nucleotides; modified_base 6 OTHER; n is the synthetic nucleotide analog NM202 as described in the disclosure.; modified_base 7..10 OTHER; 2'-fluoro modified nucleotides; modified_base 11..19 OTHER; modified_base 1 OTHER; 2'-methoxy and 5'-thiovinylphosphonate modified nucleotide; modified_base 2 OTHER; 2'-fluoro and 5'-thiophosphate modified nucleotide; modified_base 6 OTHER;)
Target gene SOD1 [1]; 150 μg per mouse
  Left hemisphere Mean value of inhibition rate: 30.24
  Right hemisphere Mean value of inhibition rate: 52.15
Target gene SOD1 [2]
  Subcutaneous fat % Mean value of inhibition rate: 71.42%
  Brown fat on back % Mean value of inhibition rate: 67.27%
  Paragonadal fat % Mean value of inhibition rate: 55.23%

## RZ899090: siRNA sequence with the sense strand with the NM073 (C18) conjugation at Position 4; SEQ ID NO: 15 / 23 (sense UUUNAAUCCUCACUCUAAA; antisense UUUAGAGUGAGGAUUAAAAUG; NM073 (C18) conjugate at sense position 4; modified_base 1..2 OTHER; 2'-methoxy and 5'-thiophosphate modified nucleotides; modified_base 3 OTHER; 2'-methoxy modified nucleotide; modified_base 4 OTHER; n is the nucleotide analog NM073 as described in the disclosure.; modified_base 5..6 OTHER; 2'-methoxy modified nucleotides; modified_base 7..10 OTHER; 2'-fluoro modified nucleotides; modified_base 11..19 OTHER; modified_base 1 OTHER; 2'-methoxy and 5'-thiovinylphosphonate modified nucleotide; modified_base 2 OTHER; 2'-fluoro and 5'-thiophosphate modified nucleotide; modified_base 3..5 OTHER; …)
Target gene SOD1 [3]; cerebellum, intrathecal, 900 μg per rat
  Cerebellum % Mean value of inhibition rate: 56.97%
Target gene SOD1 [3]; cerebral cortex, intrathecal, 900 μg per rat
  Cortex % Mean value of inhibition rate: −15.00%
Target gene SOD1 [3]; hippocampus, intrathecal, 900 μg per rat
  Hippocampus % Mean value of inhibition rate: 35.35%
Target gene SOD1 [3]; intrathecal 900 μg per rat
  level of inhibition on the target gene compared with the Uhd control conjugate (RZ899093): comparable level of inhibition in the spinal cord segment and cerebellum
Target gene SOD1 [3]; spinal cord cervical segment, intrathecal, 900 μg per rat
  Cervical segment % Mean value of inhibition rate: 69.98%
Target gene SOD1 [3]; spinal cord lumbar segment, intrathecal, 900 μg per rat
  Lumbar segment % Mean value of inhibition rate: 93.93%
Target gene SOD1 [3]; spinal cord thoracic segment, intrathecal, 900 μg per rat
  Thoracic segment % Mean value of inhibition rate: 94.17%
Target gene SOD1 [1]; left and right hemisphere, lateral ventricle 150 μg per mouse
  inhibitory activity compared with the vector-free siRNA sequence RX599002: superior inhibitory activity
Target gene SOD1 [1]; 150 μg per mouse
  Left hemisphere Mean value of inhibition rate: 67.87
  Right hemisphere Mean value of inhibition rate: 78.49
Target gene SOD1 [1]; right hemisphere (administration side) and left hemisphere (non-administration side), 150 μg per mouse
  activity compared with Uhd conjugated reference sequence RZ899093 and NM200 (C22) conjugated reference sequence RZ899076: substantially comparable or superior activity
Target gene SOD1 [2]
  Subcutaneous fat % Mean value of inhibition rate: 71.07%
  Brown fat on back % Mean value of inhibition rate: 81.60%
  Paragonadal fat % Mean value of inhibition rate: 67.09%
Target gene SOD1 [2]; paragonadal fat and brown fat on back, tail vein 5 mg/kg
  inhibitory activity compared with the NM200 conjugated reference sequence RZ899076: equivalent or superior inhibitory activity
Target gene SOD1 [2]; subcutaneous fat, tail vein 5 mg/kg
  inhibitory action on the target gene compared with RZ899076: substantially comparable

— patent US20260132165A1, “MODIFIED NUCLEOSIDE ANALOGUE AND USE THEREOF, AND NUCLEOSIDE ANALOGUE-CONTAINING DOUBLE-STRANDED OLIGONUCLEOTIDE AND USE THEREOF” (RIGERNA THERAPEUTICS (BEIJING) CO., LTD., priority 2023, published 2026)
